Among the data in patent publication US20260209242A1, “CAMPTOTHECIN DERIVATIVE, PHARMACEUTICAL COMPOSITION, AND PREPARATION METHOD AND USE THEREFOR” (priority 2022, published 2026) are IC50 values, retold here.

In one assay the test system is SK-BR-3. As to the kind of experiment: Inhibition of proliferation of cells SK-BR-3 (CelltiterGlo, 72 h). The format is cell-based. The settings on record: Homo sapiens; SK-BR-3 cells, 72 h, CTG; read-out: IC50 (nM), antiproliferative activity on SK-BR-3. How it is done:
(§1) • (1) Cell plating: first, tumor cells SK-BR-3 were cultured using a corresponding culture medium, trypsinized, centrifuged, resuspended for counting, adjusted to an appropriate concentration, and then plated on a 384-well plate. • (2) Co-incubation of the compounds and tumor cells: after the cells adhered to the wall, 100 nL of a diluted bioactive substance (test compound) was added to the cell culture plate using ECHO, the final concentration of DMSO in wells of the cell plate was 0.33%, and the incubation was performed in an incubator at 37° C. with 5% CO2 for 72 h. • (3) After the incubation was complete, 30 μL of a CTG reagent (CelltiterGlo kit) was added to each well. The culture was oscillated on a fast oscillator for 2 min, centrifuged at 1,000 rpm for 1 min, and kept away from light at room temperature for 30 min. The chemiluminescence signal value was read using an Envision instrument. • (4) Cell viability detection: IC50 was calculated using GraphPad Prism 8 software, and the IC50 of the compounds was obtained using the following nonlinear fitting formula (see Table 1):
[formula] • Y: inhibition rate; X: log value of compound concentration-,
(§2) [formula] • high-reading control wells: cells with addition of 100 nL DMSO; and • low-reading control wells: cell-free wells.
(In ATP-based viability assays light output follows the ATP content of the culture.)

The subject of the next assay is NCI-N87. As to the kind of experiment: Inhibition of proliferation of cells NCI-N87 (CelltiterGlo, 72 h). The format is cell-based. To be noted: Homo sapiens; NCI-N87 cells, 72 h, CTG; read-out: IC50 (nM), antiproliferative activity on cells NCI-N87. How it is done:
as §1, with “NCI-N87” for “SK-BR-3”, “[…]” for “5%”, “3):” for “1):”
[formula] • Y: inhibition rate, X: log value of compound concentration;
as §2

In another assay the target is T1, CYP3A4 (Homo sapiens, UniProt P08684).
T1 construct: from tissue; host or cells: human liver microsomes
T1 sequence (P08684 whole entry): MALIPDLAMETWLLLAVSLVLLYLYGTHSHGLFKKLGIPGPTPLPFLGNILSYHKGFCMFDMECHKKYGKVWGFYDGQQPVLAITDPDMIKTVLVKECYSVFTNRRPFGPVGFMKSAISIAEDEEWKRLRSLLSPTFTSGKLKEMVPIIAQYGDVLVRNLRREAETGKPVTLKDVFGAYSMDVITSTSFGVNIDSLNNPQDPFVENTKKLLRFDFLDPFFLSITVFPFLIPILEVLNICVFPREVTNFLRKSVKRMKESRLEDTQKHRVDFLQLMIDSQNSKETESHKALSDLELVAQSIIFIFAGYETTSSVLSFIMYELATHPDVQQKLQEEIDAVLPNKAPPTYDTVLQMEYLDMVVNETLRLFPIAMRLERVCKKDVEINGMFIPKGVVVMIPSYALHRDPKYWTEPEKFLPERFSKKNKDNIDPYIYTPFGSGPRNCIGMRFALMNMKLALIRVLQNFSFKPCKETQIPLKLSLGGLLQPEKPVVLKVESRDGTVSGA
The experiment in a line: Inhibition on human hepatomicrosomes CYP3A4. The format is in vitro ADME.

For the next assay, the target named is T2, CYP1A2 (Homo sapiens, UniProt P05177).
T2 sequence (P05177 1-516): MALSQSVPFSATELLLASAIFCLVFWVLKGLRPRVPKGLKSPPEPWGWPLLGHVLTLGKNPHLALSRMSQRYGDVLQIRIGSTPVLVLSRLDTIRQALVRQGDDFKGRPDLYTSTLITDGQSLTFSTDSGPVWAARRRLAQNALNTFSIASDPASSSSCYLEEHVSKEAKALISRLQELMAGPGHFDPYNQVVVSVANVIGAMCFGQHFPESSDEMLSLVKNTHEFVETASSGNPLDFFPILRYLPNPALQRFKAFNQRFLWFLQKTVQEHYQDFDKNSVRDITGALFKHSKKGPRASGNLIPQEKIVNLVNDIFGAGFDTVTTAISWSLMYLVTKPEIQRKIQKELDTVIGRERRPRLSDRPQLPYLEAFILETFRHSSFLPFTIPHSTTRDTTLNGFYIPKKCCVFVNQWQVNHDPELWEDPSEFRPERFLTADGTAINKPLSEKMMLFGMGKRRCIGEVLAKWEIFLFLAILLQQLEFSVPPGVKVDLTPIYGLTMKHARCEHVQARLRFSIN
As to the kind of experiment: Inhibition on human hepatomicrosomes CYP1A2.

The term IC50 denotes the concentration that gives 50% inhibition.

Like-named read-outs stand apart in the source and are kept apart here.

For the molecule `CC[C@@]1(O)C(=O)OCc2c1cc1n(c2=O)Cc2c-1nc1cc(F)c(C)c3c1c2[C@@H](NC(=O)[C@@H](O)C1CC1)CCC3` [Compound 11-2, (S)-2-cyclopropyl-N-((1S,10S)-10-ethyl-6-fluoro-10-hydroxy-5-methyl-11,14-dioxo-1,2,3,4,10,11,14,16-octahydro-13H-cyclohepta[de]pyrano[3′,4′:6,7]indolizino[1,2-b]quinolin-1-yl)-2-hydroxyacetamide], the IC50 is 2.4 nM in the assay with SK-BR-3; 2.3 nM in the assay on NCI-N87; > 30 µM on CYP3A4; > 30 µM at CYP3A4 (read-out: 3A4T (IC50 μM), human hepatomicrosomes, substrate testosterone); > 30000 nM against CYP1A2.
